Measurements published in PubChem BioAssay AID602130 (Sanford-Burnham Center for Chemical Genomics, 2011).
Activity calls are given as the source filed them.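 How the source made its calls: active means IC50 at or below 20 µM; inactive means the rest.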

biological target: Glucose-6-phosphate 1-dehydrogenase (Homo sapiens) (UniProt P11413); assay: human G6PD enzyme inhibition selectivity, SAR follow-up, selectivity assay for PfG6PD antimalarial inhibitor project, biochemical, fluorescence, dose response, set 3 (AID 602130); settings: NADPH resazurin-diaphorase fluorescence
Sequence (P11413 whole entry, looked up): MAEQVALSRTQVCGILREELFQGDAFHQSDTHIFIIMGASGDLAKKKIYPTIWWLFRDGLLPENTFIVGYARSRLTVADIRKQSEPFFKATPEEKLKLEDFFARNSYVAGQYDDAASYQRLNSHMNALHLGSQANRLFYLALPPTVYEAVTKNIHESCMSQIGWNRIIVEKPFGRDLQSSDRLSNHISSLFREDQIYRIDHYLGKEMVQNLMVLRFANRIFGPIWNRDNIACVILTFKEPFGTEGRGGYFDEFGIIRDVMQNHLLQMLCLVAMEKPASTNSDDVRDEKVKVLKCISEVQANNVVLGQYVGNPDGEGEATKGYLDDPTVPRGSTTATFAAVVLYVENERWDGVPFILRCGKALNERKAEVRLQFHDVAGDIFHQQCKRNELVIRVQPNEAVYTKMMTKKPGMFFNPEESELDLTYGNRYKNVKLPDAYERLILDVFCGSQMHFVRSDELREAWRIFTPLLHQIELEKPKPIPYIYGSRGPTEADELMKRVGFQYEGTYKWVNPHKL

Row | SMILES | IC50
1 | CCN1CCCC1CNC(=O)c1ccc2c(c1)NC(=O)/C(=C/c1ccc3ccccc3c1)S2 (centres undefined) | > 80 µM (inactive)
2 | NC1CCN(C(=O)c2ccc3c(c2)NC(=O)/C(=C/c2ccccc2F)S3)C1 (centres undefined) | > 80 µM (inactive)
3 | CCN1CCCC1CNC(=O)c1ccc2c(c1)NC(=O)/C(=C/c1ccc(F)cc1)S2 (centres undefined) | > 80 µM (inactive)
4 | NCCNC(=O)c1ccc2c(c1)NC(=O)c1ccccc1S2 | > 80 µM (inactive)
5 | CN(C)c1ccccc1CNC(=O)c1ccc2c(c1)NC(=O)/C(=C/c1ccccc1F)S2 | > 80 µM (inactive)
6 | CCN1CCC[C@H]1CNC(=O)c1ccc2c(c1)NC(=O)c1ccccc1S2 | > 80 µM (inactive)
7 | CCC(C)N1CCCC1CNC(=O)c1ccc2c(c1)NC(=O)c1ccccc1S2 (centres undefined) | > 80 µM (inactive)
8 | CCN(CC)CCNC(=O)c1ccc2c(c1)NC(=O)/C(=C/c1ccccc1F)S2 | > 80 µM (inactive)
9 | CCN(CC)CCCC(C)Nc1ccnc2cc(Cl)ccc12 (centres undefined) | > 80 µM (inactive)
10 | O=C(NCCN1CCCCC1)c1ccc2c(c1)NC(=O)c1ccccc1S2 | > 80 µM (inactive)
11 | NC1CCN(C(=O)c2ccc3c(c2)NC(=O)c2ccccc2S3)C1 (centres undefined) | > 80 µM (inactive)
12 | O=C(NCCNC1CCCCC1)c1ccc2c(c1)NC(=O)c1ccccc1S2 | > 80 µM (inactive)
13 | CCN1CCC[C@@H]1CNC(=O)c1ccc2c(c1)NC(=O)c1ccccc1S2 | > 80 µM (inactive)
14 | O=C(NCCN1CCOCC1)c1ccc2c(c1)NC(=O)c1ccccc1S2 | > 80 µM (inactive)
15 | CCN1CCCC1CNC(=O)c1ccc2c(c1)NC(=O)C(Cc1ccccc1F)S2 (centres undefined) | > 80 µM (inactive)
16 | CCC(C)N(CCNC(=O)c1ccc2c(c1)NC(=O)c1ccccc1S2)C1CCCCC1 (centres undefined) | > 80 µM (inactive)

Now from value to molecule:

Row | IC50 | SMILES
17 | > 80 µM (inactive) | CCN1CCCC1CNC(=O)c1ccc2c(c1)NC(=O)/C(=C/c1cccc(F)c1)S2 (centres undefined)
18 | > 80 µM (inactive) | O=C1Nc2cc(C(=O)NCC3CCCN3)ccc2S/C1=C\c1ccccc1F (centres undefined)
19 | > 80 µM (inactive) | CCN1CCC[C@H]1CNC(=O)c1ccc2c(c1)NC(=O)/C(=C/c1ccccc1F)S2
20 | > 80 µM (inactive) | CC(C)(C)OC(=O)N1CCCC1CNC(=O)c1ccc2c(c1)NC(=O)/C(=C/c1ccccc1F)S2 (centres undefined)
21 | > 80 µM (inactive) | CCN1CCC[C@@H]1CNC(=O)c1ccc2c(c1)NC(=O)/C(=C/c1ccccc1F)S2
22 | > 80 µM (inactive) | CCCN1CCCC1CNC(=O)c1ccc2c(c1)NC(=O)/C(=C/c1ccccc1F)S2 (centres undefined)
23 | > 80 µM (inactive) | CCN1CCCC1CNC(=O)c1ccc2c(c1)NC(=O)/C(=C/c1c(F)cccc1F)S2 (centres undefined)
24 | > 80 µM (inactive) | CCN1CCCC1CNC(=O)c1ccc2c(c1)NC(=O)/C(=C/c1cccc(F)c1F)S2 (centres undefined)
